From US20120238557A1, “AMINOTHIAZINE OR AMINOOXAZINE DERIVATIVE HAVING AMINO LINKER” (SHIONOGI & CO., LTD., priority 2009, published 2012)
Where two headings read alike, the source gives them in different places. Each block holds one compound with its values, some of them ahead of it.

Experiments:
[1] = tested on: Neuroblastoma SH-SY5Y cells (SH/APPwt) with human wild-type β-APP excessively expressed; experiment: Measurement of β-amyloid (Aβ) production inhibitory effect in cell; assay type: cell-based
Experimental: Neuroblastoma SH-SY5Y cells (SH/APPwt) with human wild-type β-APP excessively expressed therein were prepared at 8×10^5 cells/mL, and 150 μl portions thereof were inoculated into each well of a 96-well culture plate (Falcon). The cells were cultured for 2 hours at 37° C. in a 5% gaseous carbon dioxide incubator. Then, a solution which had been preliminarily prepared by adding and suspending the test compound (DMSO (dimethyl sulfoxide) solution) so as to be 2 μl/50 μl medium was added to the cell sap. Namely, the final DMSO concentration was 1%, and the amount of the cell culture was 200 μl. After the incubation was performed for 24 hours from the addition of the test compound, 100 μl of the culture supernatant was collected from each fraction. The amount of the Aβ in each fraction was measured.
The Aβ amount was measured as follows. 10 μl of a homogeneous time resolved fluorescence (HTRF) measurement reagent (Amyloid β 1-40 peptide; IBA Molecular Holding, S. A.) and 10 μl of the culture supernatant were put into a 384-well half area microplate (black microplate, Costar) and mixed with each other, and then left standing overnight at 4° C. while the light was shielded. Then, the fluorescence intensity (excitation wavelength: 337 nm, measurement wavelength: 620 nm and 665 nm) was measured with a Wallac 1420 multilabel counter (Perkin Elmer life sciences).

[2] = target: T1, CYP3A4 enzyme expressed in Escherichia coli (Homo sapiens, UniProt P08684); experiment: CYP3A4 fluorescent MBI test; assay type: in vitro ADME; details: pre-reaction time 0 or 30 minutes; substrate 7-BFC
T1 construct: host or cells: Escherichia coli
Experimental: The CYP3A4 fluorescent MBI test is a test of investigating enhancement of CYP3A4 inhibition of a compound by a metabolism reaction, and the test was performed using, as CYP3A4 enzyme expressed in Escherichia coli and employing, as an index, a reaction in which 7-benzyloxytrifluoromethylchmarin (7-BFC) is debenzylated by the CYP3A4 enzyme to produce a metabolite, 7-hydroxytrifluoromethylchmarin (HFC) emitting fluorescent light.
The reaction conditions were as follows: substrate, 5.6 μmol/L 7-BFC; pre-reaction time, 0 or 30 minutes; reaction time, 15 minutes; reaction temperature, 25° C. […]
An enzyme in a K-Pi buffer (pH 7.4) and a test drug solution as a pre-reaction solution were added to a 96-well plate at the composition of the pre-reaction, a part of it was transferred to another 96-well plate so that it was 1/10 diluted by a substrate in a K-Pi buffer, NADPH as a co-factor was added to initiate a reaction as an index (without preincubation) and, after a predetermined time of a reaction, acetonitrile/0.5 mol/L Tris(trishydroxyaminomethane)=4/1 was added to stop the reaction. […] For the plate on which each index reaction had been performed, a fluorescent value of 7-HFC which is a metabolite was measured with a fluorescent plate reader. […]

[3] = target: T2, CYP1A2 (Homo sapiens, UniProt P05177); experiment: CYP inhibition test (CYP1A2); assay type: in vitro ADME; details: pooled human hepatic microsome; 7-ethoxyresorufin O-deethylation
T2 construct: enzyme, pooled human hepatic microsome 0.2 mg protein/mL; from tissue; host or cells: pooled human hepatic microsomes
T2 sequence (P05177 1-516): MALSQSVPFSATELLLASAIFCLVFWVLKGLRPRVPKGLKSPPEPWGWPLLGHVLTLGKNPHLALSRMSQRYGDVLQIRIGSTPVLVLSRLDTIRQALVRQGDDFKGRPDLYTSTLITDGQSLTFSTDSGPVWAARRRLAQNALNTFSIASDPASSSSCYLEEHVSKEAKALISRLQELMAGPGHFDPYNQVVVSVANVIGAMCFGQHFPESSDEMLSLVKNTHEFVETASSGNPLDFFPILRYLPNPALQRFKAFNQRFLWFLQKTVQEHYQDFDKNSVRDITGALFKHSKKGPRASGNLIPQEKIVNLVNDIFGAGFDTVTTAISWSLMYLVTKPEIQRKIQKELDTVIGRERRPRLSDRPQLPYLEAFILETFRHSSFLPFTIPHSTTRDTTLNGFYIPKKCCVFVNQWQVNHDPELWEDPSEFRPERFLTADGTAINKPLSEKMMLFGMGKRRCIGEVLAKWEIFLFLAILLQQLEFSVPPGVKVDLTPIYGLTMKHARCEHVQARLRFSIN
Experimental: (§1) Using commercially available pooled human hepatic microsome, and employing, as markers, 7-ethoxyresorufin O-deethylation (CYP1A2), tolbutamide methyl-hydroxylation (CYP2C9), mephenyloin 4′-hydroxylation (CYP2C19), dextromethorphan O-demethylation (CYP2D6), and terfenedine hydroxylation (CYP3A4) as typical substrate metabolism reactions of human main five CYP enzyme forms (CYP1A2, 2C9, 2C19, 2D6, 3A4), an inhibitory degree of each metabolite production amount by a test compound was assessed. […] After the centrifugation at 3000 rpm for 15 minutes, resorufin (CYP1A2 metabolite) in the supernatant was quantified by a fluorescent multilabel counter and tolbutamide hydroxide (CYP2C9 metabolite), mephenyloin 4′ hydroxide (CYP2C19 metabolite), dextrorphan (CYP2D6 metabolite), and terfenadine alcohol (CYP3A4 metabolite) were quantified by LC/MS/MS. Addition of only DMSO being a solvent dissolving a drug to a reaction system was adopted as a control (100%), remaining activity (%) was calculated at each concentration of a test drug added as the solution and IC50 was calculated by reverse presumption by a logistic model using a concentration and an inhibition rate.

[4] = target: T3, CYP2C9 (Homo sapiens, UniProt P11712); experiment: CYP inhibition test (CYP2C9); assay type: in vitro ADME; details: pooled human hepatic microsome; tolbutamide methyl-hydroxylation
T3 construct: enzyme, pooled human hepatic microsome 0.2 mg protein/mL; from tissue; host or cells: pooled human hepatic microsomes
Experimental: as §1

[5] = target: T4, CYP2C19 (Homo sapiens, UniProt P33261); experiment: CYP inhibition test (CYP2C19); assay type: in vitro ADME; details: pooled human hepatic microsome; mephenyloin 4′-hydroxylation
T4 construct: enzyme, pooled human hepatic microsome 0.2 mg protein/mL; from tissue; host or cells: pooled human hepatic microsomes
Experimental: as §1

[6] = target: T5, CYP2D6 (Homo sapiens, UniProt P10635); experiment: CYP inhibition test (CYP2D6); assay type: in vitro ADME; details: pooled human hepatic microsome; dextromethorphan O-demethylation
T5 construct: enzyme, pooled human hepatic microsome 0.2 mg protein/mL; from tissue; host or cells: pooled human hepatic microsomes
Experimental: as §1

[7] = target: T6, CYP3A4 (Homo sapiens, UniProt P08684); experiment: CYP inhibition test (CYP3A4); assay type: in vitro ADME; details: pooled human hepatic microsome; terfenedine hydroxylation
T6 construct: enzyme, pooled human hepatic microsome 0.2 mg protein/mL; from tissue; host or cells: pooled human hepatic microsomes
Experimental: as §1

[8] = target: T7, hERG (IKr) (Homo sapiens, UniProt Q12809); experiment: hERG test; assay type: cell-based; details: pH 7.4, HEK293 cells expressing hERG channel, whole cell patch clamp, concentration not given, read-out: % inhibition relative to the tail peak current (IKr)
T7 construct: expressed in transfected cells; host or cells: HEK293
Text: For the purpose of assessing risk of an electrocardiogram QT interval prolongation, effects on delayed rectifier K+ current (IKr), which plays an important role in the ventricular repolarization process, was studied using HEK293 cells expressing human ether-a-go-go related gene (hERG) channel.
After a cell was retained at a membrane potential of −80 mV by whole cell patch clamp method using an automated patch clamp system (PatchXpress 7000A, Axon Instruments Inc.), IKr induced by depolarization pulse stimulation at +40 mV for 2 seconds and, further, repolarization pulse stimulation at −50 mV for 2 seconds was recorded. […] From the recording IKr, an absolute value of the tail peak current was measured based on the current value at the resting membrane potential using an analysis software (DataXpress ver.1, Molecular Devices Corporation). Further, the % inhibition relative to the tail peak current before application of the test substance was calculated, and compared with the vehicle-applied group (0.1% dimethyl sulfoxide solution) to assess influence of the test substance on IKr.

[9] = Metabolism stability test; assay type: in vitro ADME; details: human liver microsomes 0.5 mg protein/mL, 1 mmol/L NADPH, 37° C., 30 minutes; 0 minute = 100%
Experimental: Using a commercially available pooled human hepatic microsomes, a test compound was reacted for a constant time, a remaining rate was calculated by comparing a reacted sample and an unreacted sample, thereby, a degree of metabolism in liver was assessed.
A reaction was performed (oxidative reaction) at 37° C. for 0 minute or 30 minutes in the presence of 1 mmol/L NADPH in 0.2 mL of a buffer (50 mmol/L Tris-HCl pH 7.4, 150 mmol/L potassium chloride, 10 mmol/L magnesium chloride) containing 0.5 mg protein/mL of human liver microsomes. After the reaction, 50 μL of the reaction solution was added to 100 μL of a methanol/acetonitrile=1/1 (v/v), mixed and centrifuged at 3000 rpm for 15 minutes. The test compound in the supernatant was quantified by LC/MS/MS, and a remaining amount of the test compound after the reaction was calculated, letting a compound amount at 0 minute reaction time to be 100%.

[10] = Solubility test; assay type: physicochemical; details: JP-I and JP-II media (2% DMSO stock added), aqueous buffer, kinetic from dmso stock, medium (JP-I, JP-II), turbidity after 4 hours
Experimental: A 2-fold dilution series (12 points) of a 10 mM solution of a test compound in DMSO was added to a medium (JP-I, JP-II) (2%), and solubility was assessed by 3 stages (High; >40 μM, Medium; 3-40 μM, Low; <3 μM) from a turbidity after 4 hours (crystallization information).

[11] = Aβ production in SH/APPwt cells, by the similar test, read-out: IC50 value
[12] = amount needed to inhibit Aβ production by 50%, SH/APPwt cells, 24 hours, Table 3, read-out: IC50

T3 sequence (P11712 whole entry): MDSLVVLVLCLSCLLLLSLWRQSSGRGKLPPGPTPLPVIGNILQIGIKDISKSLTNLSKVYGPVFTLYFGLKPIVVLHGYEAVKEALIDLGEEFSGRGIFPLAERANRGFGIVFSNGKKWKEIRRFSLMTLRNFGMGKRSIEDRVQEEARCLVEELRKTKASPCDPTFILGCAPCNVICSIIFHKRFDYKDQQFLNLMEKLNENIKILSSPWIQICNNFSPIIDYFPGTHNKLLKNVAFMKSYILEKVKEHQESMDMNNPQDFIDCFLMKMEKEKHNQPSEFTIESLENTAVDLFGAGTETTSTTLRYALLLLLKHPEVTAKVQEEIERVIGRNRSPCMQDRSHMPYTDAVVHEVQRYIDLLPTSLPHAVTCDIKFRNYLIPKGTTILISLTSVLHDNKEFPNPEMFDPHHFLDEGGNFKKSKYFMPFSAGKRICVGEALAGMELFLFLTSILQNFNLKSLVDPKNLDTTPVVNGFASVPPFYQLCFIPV
T4 sequence (P33261 whole entry): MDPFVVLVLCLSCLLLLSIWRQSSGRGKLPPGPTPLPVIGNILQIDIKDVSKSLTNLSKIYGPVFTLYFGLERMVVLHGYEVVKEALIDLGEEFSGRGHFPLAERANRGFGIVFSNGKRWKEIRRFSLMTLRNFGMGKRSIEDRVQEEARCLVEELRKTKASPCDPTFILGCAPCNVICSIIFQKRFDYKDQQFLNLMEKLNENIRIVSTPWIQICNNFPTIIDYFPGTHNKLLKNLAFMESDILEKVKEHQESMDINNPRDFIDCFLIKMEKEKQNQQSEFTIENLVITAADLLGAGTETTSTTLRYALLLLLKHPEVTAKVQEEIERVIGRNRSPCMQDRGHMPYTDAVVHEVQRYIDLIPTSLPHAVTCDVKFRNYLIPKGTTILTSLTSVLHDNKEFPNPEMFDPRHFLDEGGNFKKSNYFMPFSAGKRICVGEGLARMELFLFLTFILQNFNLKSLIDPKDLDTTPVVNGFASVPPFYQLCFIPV
T5 sequence (P10635 whole entry): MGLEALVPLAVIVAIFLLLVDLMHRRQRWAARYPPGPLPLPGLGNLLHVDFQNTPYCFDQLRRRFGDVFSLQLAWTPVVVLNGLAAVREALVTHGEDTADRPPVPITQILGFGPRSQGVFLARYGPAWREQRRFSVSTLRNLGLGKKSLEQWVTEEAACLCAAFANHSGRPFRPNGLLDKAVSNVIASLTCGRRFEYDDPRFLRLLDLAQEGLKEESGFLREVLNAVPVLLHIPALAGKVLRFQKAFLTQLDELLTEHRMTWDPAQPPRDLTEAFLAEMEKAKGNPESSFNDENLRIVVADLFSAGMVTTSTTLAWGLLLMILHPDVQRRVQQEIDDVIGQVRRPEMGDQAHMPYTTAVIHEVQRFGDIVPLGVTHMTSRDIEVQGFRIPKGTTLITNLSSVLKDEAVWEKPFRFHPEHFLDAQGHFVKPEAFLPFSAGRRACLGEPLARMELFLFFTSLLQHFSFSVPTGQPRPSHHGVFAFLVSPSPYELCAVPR
T7 sequence (Q12809 whole entry): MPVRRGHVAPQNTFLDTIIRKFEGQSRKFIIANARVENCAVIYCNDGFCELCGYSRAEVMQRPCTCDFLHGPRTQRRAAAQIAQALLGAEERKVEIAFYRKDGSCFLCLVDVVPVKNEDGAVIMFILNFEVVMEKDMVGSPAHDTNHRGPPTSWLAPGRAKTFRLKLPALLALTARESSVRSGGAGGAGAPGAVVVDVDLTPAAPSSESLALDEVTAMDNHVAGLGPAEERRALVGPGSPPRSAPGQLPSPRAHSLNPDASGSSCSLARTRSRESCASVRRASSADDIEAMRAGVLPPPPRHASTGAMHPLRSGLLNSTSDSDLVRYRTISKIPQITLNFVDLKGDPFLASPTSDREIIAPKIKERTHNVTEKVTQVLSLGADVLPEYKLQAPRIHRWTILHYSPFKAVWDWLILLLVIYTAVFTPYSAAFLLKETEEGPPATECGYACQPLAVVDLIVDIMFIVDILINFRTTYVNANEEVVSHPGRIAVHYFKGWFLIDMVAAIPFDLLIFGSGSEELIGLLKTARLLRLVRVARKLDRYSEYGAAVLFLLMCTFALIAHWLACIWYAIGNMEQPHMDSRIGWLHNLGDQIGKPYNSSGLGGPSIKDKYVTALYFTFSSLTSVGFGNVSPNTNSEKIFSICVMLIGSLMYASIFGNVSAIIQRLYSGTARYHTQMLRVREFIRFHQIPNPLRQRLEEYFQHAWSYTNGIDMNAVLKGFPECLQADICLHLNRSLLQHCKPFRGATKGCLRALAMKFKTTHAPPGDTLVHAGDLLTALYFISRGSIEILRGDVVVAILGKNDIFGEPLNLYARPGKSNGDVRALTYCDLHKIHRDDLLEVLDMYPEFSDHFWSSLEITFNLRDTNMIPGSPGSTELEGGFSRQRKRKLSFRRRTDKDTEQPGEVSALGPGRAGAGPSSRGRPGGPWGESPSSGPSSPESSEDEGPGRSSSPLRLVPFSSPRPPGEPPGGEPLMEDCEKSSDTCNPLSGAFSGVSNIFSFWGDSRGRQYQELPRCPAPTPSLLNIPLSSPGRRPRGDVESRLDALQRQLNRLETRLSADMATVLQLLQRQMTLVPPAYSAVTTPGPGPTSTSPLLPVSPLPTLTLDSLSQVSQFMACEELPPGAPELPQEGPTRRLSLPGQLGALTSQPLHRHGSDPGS
T6 sequence (P08684 whole entry): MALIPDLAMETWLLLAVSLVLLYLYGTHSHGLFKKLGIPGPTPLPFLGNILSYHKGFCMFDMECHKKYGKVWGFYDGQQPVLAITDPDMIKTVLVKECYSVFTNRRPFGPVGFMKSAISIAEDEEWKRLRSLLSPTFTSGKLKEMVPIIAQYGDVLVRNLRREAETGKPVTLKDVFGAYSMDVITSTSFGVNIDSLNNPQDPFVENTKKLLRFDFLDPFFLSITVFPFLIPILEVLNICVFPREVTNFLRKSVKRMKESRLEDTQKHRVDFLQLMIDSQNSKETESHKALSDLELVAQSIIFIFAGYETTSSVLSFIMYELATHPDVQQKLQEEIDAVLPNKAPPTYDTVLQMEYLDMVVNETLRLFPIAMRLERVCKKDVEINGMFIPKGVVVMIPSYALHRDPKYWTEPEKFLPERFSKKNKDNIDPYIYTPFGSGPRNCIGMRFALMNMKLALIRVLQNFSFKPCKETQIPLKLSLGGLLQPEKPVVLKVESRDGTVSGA
T1 sequence (P08684 whole entry): as above

- IC50 [1, 11]: ≤ 3 µM
Compound: CC(C)Oc1cccnc1Nc1ccc(F)c([C@]2(C)CCSC(N)=N2)c1 [Compound I-24]

- IC50 [1, 11]: ≤ 3 µM
Compound: CC(C)OCc1ccc(Nc2ccc(F)c([C@]3(C)CCSC(N)=N3)c2)nc1 [Compound I-26]

- IC50 [1, 11]: ≤ 3 µM
Compound: COCc1ccc(Nc2ccc(F)c([C@]3(C)CCSC(N)=N3)c2)nc1 [Compound I-23]

- IC50 [1, 11]: ≤ 3 µM
Compound: CCCCOC(=O)c1cccnc1Nc1ccc(F)c([C@]2(C)CCOC(N)=N2)c1 [Compound I-25]

- remaining amount of the test compound after the reaction [9]: 95%
Compound: C[C@@]1(c2cccc(Nc3ncccc3C#N)c2)CCSC(N)=N1 [Compound I-33]

The next lines start with the compound.

Compound: Cc1cccc(Nc2ccc(F)c([C@]3(C)CCSC(N)=N3)c2)n1 [Compound I-12]
- IC50 [1, 11]: ≤ 3 µM

Compound: COc1ccnc(Nc2ccc(F)c([C@]3(C)CCSC(N)=N3)c2)c1 [Compound I-19]
- IC50 [1, 11]: ≤ 3 µM

Compound: C[C@@]1(c2cc(Nc3ncccc3C#N)ccc2F)CCOC(N)=N1 [Compound I-3]
- CYP3A4 MBI: difference between IC50 values [2]: (−) (when the difference is 3 μM or less, this was defined as (−))

Compound: COc1cccnc1Nc1ccc(F)c([C@]2(C)CCSC(N)=N2)c1 [Compound I-18]
- IC50 [1, 12]: 0.011 µM

Compound: C[C@@]1(c2cc(Nc3ncccc3CO)ccc2F)CCSC(N)=N1 [Compound I-16]
- IC50 [1, 11]: ≤ 3 µM

Compound: COc1ccc(Nc2ccc(F)c([C@]3(C)CCSC(N)=N3)c2)nc1 [Compound I-20]
- IC50 [1, 11]: ≤ 3 µM

Compound: COc1cccnc1Nc1ccc(F)c([C@]2(C)CCOC(N)=N2)c1 [Compound I-6]
- IC50 [1, 12]: 0.016 µM

Compound: C[C@@]1(c2cc(Nc3ncccc3N)ccc2F)CCSC(N)=N1 [Compound I-10]
- IC50 [1, 11]: ≤ 3 µM
- IC50 [3]: > 21 µM
- IC50 [4]: > 21 µM
- IC50 [5]: > 21 µM
- IC50 [6]: > 21 µM
- IC50 [7]: > 21 µM

Compound: C[C@@]1(c2cc(Nc3ccncn3)ccc2F)CCSC(N)=N1 [Compound I-1]
- IC50 [1, 11]: ≤ 3 µM
- inhibition at 10 min [8]: 3.2%

Compound: C[C@@]1(c2cc(Nc3ncccc3C#N)ccc2F)C=CSC(N)=N1 [Compound I-9]
- solubility at 4 h [10]: > 40 µM
